Laboratory results: ChEMBL document CHEMBL3885881, “DrugMatrix”

Organism: Rattus norvegicus
Assay: DrugMatrix - Regimen: Daily Repeat
Assay type: toxicity, organism-based, Sprague-Dawley
Parameters: regimen Daily Repeat, gender Male, age 6-8 weeks
Settings: in vivo, po, route oral GAVAGE, […]; for ABSOLUTE BASOPHIL / ABSOLUTE EOSINOPHIL / ABSOLUTE LYMPHOCYTE / ABSOLUTE MONOCYTE / ABSOLUTE SEGMENTED NEUTROPHIL / BASOPHIL / EOSINOPHIL / ERYTHROCYTE COUNT / HEMATOCRIT / HEMOGLOBIN / LEUKOCYTE COUNT / LYMPHOCYTE / MEAN CORPUSCULAR HEMOGLOBIN / MEAN CORPUSCULAR HEMOGLOBIN CONCENTRATION / MEAN CORPUSCULAR VOLUME / MONOCYTE / NEUTROPHIL / NUCLEATED RED BLOOD CELLS / PLATELET COUNT: tissue Blood; for ALANINE AMINOTRANSFERASE / ALBUMIN / ALKALINE PHOSPHATASE / ASPARTATE AMINOTRANSFERASE / BLOOD UREA NITROGEN / CARBON DIOXIDE / CHLORIDE / CHOLESTEROL / CREATINE PHOSPHOKINASE / CREATININE / GLUCOSE / LACTATE DEHYDROGENASE / LIPASE / PHOSPHORUS / POTASSIUM / SODIUM / TOTAL BILIRUBIN / TOTAL PROTEIN / URIC ACID: tissue Plasma
[1] = 30 mg/kg, 120 h, dose level Low, time 5 day
[2] = 60 mg/kg, 72 h, dose level High, time 3 day
[3] = 60 mg/kg, 120 h, dose level High, time 5 day

Cc1oncc1C(=O)Nc1ccc(C(F)(F)F)cc1 [LEFLUNOMIDE]
ABSOLUTE BASOPHIL [1]: 0 CELLS/uL | ABSOLUTE EOSINOPHIL [1]: 25.33 CELLS/uL | ABSOLUTE LYMPHOCYTE [1]: 6685.33 CELLS/uL | ABSOLUTE MONOCYTE [1]: 149.33 CELLS/uL | ABSOLUTE SEGMENTED NEUTROPHIL [1]: 606.67 CELLS/uL | BASOPHIL [1]: 0% | EOSINOPHIL [1]: 0.33% | ERYTHROCYTE COUNT [1]: 4.69 x10E6/uL | HEMATOCRIT [1]: 30.27% | HEMOGLOBIN [1]: 11.73 G/DL | LEUKOCYTE COUNT [1]: 7.47 x10E3/uL | LYMPHOCYTE [1]: 89.33% | MEAN CORPUSCULAR HEMOGLOBIN [1]: 25.03 pg | MEAN CORPUSCULAR HEMOGLOBIN CONCENTRATION [1]: 38.77 G/DL | MEAN CORPUSCULAR VOLUME [1]: 64.57 fL | MONOCYTE [1]: 2% | NEUTROPHIL [1]: 8.33% | NUCLEATED RED BLOOD CELLS [1]: 0 /100WBC | PLATELET COUNT [1]: 507.67 x10E3/uL | ALANINE AMINOTRANSFERASE [1]: 47.33 u/L | ALBUMIN [1]: 3.93 G/DL | ALKALINE PHOSPHATASE [1]: 195.67 u/L | ASPARTATE AMINOTRANSFERASE [1]: 69.33 u/L | BLOOD UREA NITROGEN [1]: 12.67 mg/dL | CARBON DIOXIDE [1]: 34 mmol/L | CHLORIDE [1]: 103 MEQ/L | CHOLESTEROL [1]: 104.33 mg/dL | CREATINE PHOSPHOKINASE [1]: 179 u/L | CREATININE [1]: 0.11 mg/dL | GLUCOSE [1]: 152.67 mg/dL | LACTATE DEHYDROGENASE [1]: 60 u/L | LIPASE [1]: 11.67 u/L | PHOSPHORUS [1]: 12.6 mg/dL | POTASSIUM [1]: 5.71 MEQ/L | SODIUM [1]: 146.27 MEQ/L | TOTAL BILIRUBIN [1]: 0.1 mg/dL | TOTAL PROTEIN [1]: 5.9 G/DL | URIC ACID [1]: 0.27 mg/dL | ABSOLUTE BASOPHIL [2]: 0 CELLS/uL | ABSOLUTE EOSINOPHIL [2]: 0 CELLS/uL | ABSOLUTE LYMPHOCYTE [2]: 5003.33 CELLS/uL | ABSOLUTE MONOCYTE [2]: 42.67 CELLS/uL | ABSOLUTE SEGMENTED NEUTROPHIL [2]: 720.67 CELLS/uL | BASOPHIL [2]: 0% | EOSINOPHIL [2]: 0% | ERYTHROCYTE COUNT [2]: 5.59 x10E6/uL | HEMATOCRIT [2]: 34.57% | HEMOGLOBIN [2]: 13.67 G/DL | LEUKOCYTE COUNT [2]: 5.77 x10E3/uL | LYMPHOCYTE [2]: 89% | MEAN CORPUSCULAR HEMOGLOBIN [2]: 24.5 pg | MEAN CORPUSCULAR HEMOGLOBIN CONCENTRATION [2]: 39.53 G/DL | MEAN CORPUSCULAR VOLUME [2]: 61.87 fL | MONOCYTE [2]: 0.67% | NEUTROPHIL [2]: 10.33% | NUCLEATED RED BLOOD CELLS [2]: 0 /100WBC | PLATELET COUNT [2]: 824 x10E3/uL | ALANINE AMINOTRANSFERASE [2]: 39.67 u/L | ALBUMIN [2]: 3.1 G/DL | ALKALINE PHOSPHATASE [2]: 225.67 u/L | ASPARTATE AMINOTRANSFERASE [2]: 100.33 u/L | BLOOD UREA NITROGEN [2]: 14 mg/dL | CARBON DIOXIDE [2]: 30 mmol/L | CHLORIDE [2]: 98.67 MEQ/L | CHOLESTEROL [2]: 115.33 mg/dL | CREATINE PHOSPHOKINASE [2]: 296.67 u/L | CREATININE [2]: 0.11 mg/dL | GLUCOSE [2]: 170 mg/dL | LACTATE DEHYDROGENASE [2]: 93.67 u/L | LIPASE [2]: 11.33 u/L | PHOSPHORUS [2]: 10.73 mg/dL | POTASSIUM [2]: 4.3 MEQ/L | SODIUM [2]: 142.97 MEQ/L | TOTAL BILIRUBIN [2]: 0.17 mg/dL | TOTAL PROTEIN [2]: 4.97 G/DL | URIC ACID [2]: 0.43 mg/dL | ABSOLUTE BASOPHIL [3]: 0 CELLS/uL | ABSOLUTE EOSINOPHIL [3]: 23 CELLS/uL | ABSOLUTE LYMPHOCYTE [3]: 3653 CELLS/uL | ABSOLUTE MONOCYTE [3]: 48 CELLS/uL | ABSOLUTE SEGMENTED NEUTROPHIL [3]: 376 CELLS/uL | BASOPHIL [3]: 0% | EOSINOPHIL [3]: 0.67% | ERYTHROCYTE COUNT [3]: 6.19 x10E6/uL | HEMATOCRIT [3]: 39% | HEMOGLOBIN [3]: 15.23 G/DL | LEUKOCYTE COUNT [3]: 4.1 x10E3/uL | LYMPHOCYTE [3]: 89.33% | MEAN CORPUSCULAR HEMOGLOBIN [3]: 24.77 pg | MEAN CORPUSCULAR HEMOGLOBIN CONCENTRATION [3]: 39.07 G/DL | MEAN CORPUSCULAR VOLUME [3]: 63.4 fL | MONOCYTE [3]: 1.33% | NEUTROPHIL [3]: 8.67% | NUCLEATED RED BLOOD CELLS [3]: 0 /100WBC | PLATELET COUNT [3]: 441.33 x10E3/uL | ALANINE AMINOTRANSFERASE [3]: 25.67 u/L | ALBUMIN [3]: 3.73 G/DL | ALKALINE PHOSPHATASE [3]: 203 u/L | ASPARTATE AMINOTRANSFERASE [3]: 75.67 u/L | BLOOD UREA NITROGEN [3]: 64.67 mg/dL | CARBON DIOXIDE [3]: 24.33 mmol/L | CHLORIDE [3]: 98.5 MEQ/L | CHOLESTEROL [3]: 138.67 mg/dL | CREATINE PHOSPHOKINASE [3]: 227.67 u/L | CREATININE [3]: 0.33 mg/dL | GLUCOSE [3]: 145.67 mg/dL | LACTATE DEHYDROGENASE [3]: 137 u/L | LIPASE [3]: 22.67 u/L | PHOSPHORUS [3]: 11.8 mg/dL | POTASSIUM [3]: 5.41 MEQ/L | SODIUM [3]: 137.7 MEQ/L | TOTAL BILIRUBIN [3]: 0.27 mg/dL | TOTAL PROTEIN [3]: 6.53 G/DL | URIC ACID [3]: 0.93 mg/dL
